Patent US8178506B2, “Oligomeric compounds and compositions for use in modulation of small non-coding RNAs” (Regulus Therapeutics Inc., priority 2003, dated 2012)
In the oligonucleotide strings, read from the 5' end, every base follows the letter of its sugar. An asterisk marks phosphorothioate; unmarked linkages are phosphodiester. Other units and linkages are bracketed, terminal groups are in braces. A string of capitals states the bases alone. e = 2'-O-(2-methoxyethyl) (MOE); [5mC] = 5-methylcytosine; d = 2'-deoxy (DNA)

Key:
[1] = tested on: PPARγ; test: PPARγ mRNA expression in adipocytes (real-time PCR); format: cell-based, human; conditions: differentiating adipocytes transfected with oligomeric compound; Table 75
[2] = tested on: aP2; test: aP2 mRNA expression in adipocytes (real-time PCR); format: cell-based, human; conditions: differentiating adipocytes transfected with oligomeric compound; Table 75
[3] = tested on: adipocytes; test: Triglyceride accumulation assay in adipocytes; format: cell-based, human; conditions: differentiating adipocytes transfected with oligomeric compound; Table 75
[4] = tested on: Glut4; test: Glut4 mRNA expression in adipocytes (real-time PCR); format: cell-based, human; conditions: differentiating adipocytes transfected with oligomeric compound; Table 75
[5] = tested on: HSL; test: HSL mRNA expression in adipocytes (real-time PCR); format: cell-based, human; conditions: differentiating adipocytes transfected with oligomeric compound; Table 75
[6] = tested on: IGFBP-1; test: IGFBP-1 mRNA expression in HepG2 cells; format: cell-based, human; conditions: for IGFBP1 mRNA: Experiment 1, basal (no insulin), four hours, UTC = 100; for IGFBP1 mRNA expression: Experiment 2, insulin treated: HepG2 cells transfected with oligomeric compound, 1 nM insulin for four hours, UTC + 1 nM insulin = 100
Method: (§1) Approximately 28 hours after transfection, the cells are subjected to serum starvation for a period of 12 to 16 hours, using serum-free growth medium. Following serum starvation, cells are treated with 1 nM insulin (insulin-treated) or are left untreated (basal conditions) for approximately four hours. At the same time, untreated control cells in both plates are treated with 100 nM insulin to determine the maximal insulin response. Following insulin treatment (forty-eight hours after transfection), total RNA is harvested from all samples, and the amount of total RNA from each sample is determined using a Ribogreen assay (Invitrogen Corporation, Carlsbad, Calif.). Real-time PCR is performed on the total RNA samples using primer/probe sets for three insulin responsive genes: insulin-like growth factor binding protein-1 (IGFBP-1), cytosolic PEPCK (PEPCK-C), and follistatin. Gene expression levels obtained by real-time PCR are normalized for total RNA content in the samples.
(§2) Oligomeric compounds of the present invention were tested for their effects on insulin signaling in HepG2 cells. HepG2 cells were plated at 7500 cells/well in collagen coated 96-well plates. The following day, cells were transfected with oligomeric compounds targeting miRNAs using 100 nM oligomeric compound in LIPOFECTIN™ (Invitrogen Corporation, Carlsbad, Calif.) in two 96-well plates. The oligomeric compounds were tested in triplicate on each 96-well plate, except for positive and negative controls, which were measured up to six times per plate. At the end of transfection, the transfection medium was replaced by regular growth medium. Twenty-eight hours post-transfection, the cells were subjected to overnight (sixteen to eighteen hours) serum starvation using serum free growth medium. Forty-four hours post-transfection, the cells in the transfected wells were treated with either no insulin (“basal” Experiment 1, for identification of insulin-mimetic compounds) or with 1 nM insulin (“insulin treated” Experiment 2, for identification of insulin sensitizers) for four hours. At the same time, in both plates, cells in some of the un-transfected control wells are treated with 100 nM insulin to determine maximal insulin response. At the end of the insulin or no-insulin treatment (forty-eight hours post-transfection), total RNA is isolated from both the basal and insulin treated (1 nM) 96-well plates, and the amount of total RNA from each sample is determined using a Ribogreen assay (Molecular Probes, Eugene, Oreg.). Real-time PCR is performed on all the total RNA samples using primer/probe sets for three insulin responsive genes: PEPCK-c, IGFBP-1 and follistatin. Expression levels for each gene are normalized to total RNA, and values+standard deviation are expressed relative to the transfectant only untreated control (UTC) and negative control compounds.
(§3) Protocols for treatment of HepG2 cells and transfection of oligomeric compounds are as described in Example 18. Also as described in Example 18, forty-four hours post-transfection, the cells in the transfected wells were treated with either no insulin (“basal” Experiment 3 (below), for identification of insulin-mimetic compounds) or with 1 nM insulin (“insulin treated” Experiment 4 (below), for identification of insulin sensitizers) for four hours. At the same time, in both plates, cells in some of the un-transfected control wells are treated with 100 nM insulin to determine maximal insulin response. At the end of the insulin or no-insulin treatment (forty-eight hours post-transfection), total RNA is isolated from both the basal and insulin treated (1 nM) 96-well plates, and the amount of total RNA from each sample is determined using a Ribogreen assay (Molecular Probes, Eugene, Oreg.).

[7] = tested on: PEPCK-c; test: PEPCK-c mRNA expression in HepG2 cells; format: cell-based, human; conditions: for PEPCKc mRNA: Experiment 1, basal (no insulin), four hours, UTC = 100; for PEPCKc mRNA expression: Experiment 2, insulin treated: HepG2 cells transfected with oligomeric compound, 1 nM insulin for four hours, UTC + 1 nM insulin = 100
Method: as §1, §2, §3

[8] = tested on: follistatin; test: Follistatin mRNA expression in HepG2 cells; format: cell-based, human; conditions: for Follistatin mRNA: Experiment 1, basal (no insulin), four hours, UTC = 100; for Follistatin mRNA expression: Experiment 2, insulin treated: HepG2 cells transfected with oligomeric compound, 1 nM insulin for four hours, UTC + 1 nM insulin = 100
Method: as §1, §2, §3

[9] = tested on: BJ, B16-F10, T47D, T47Dp53 and HeLa cells; test: Cell cycle assay (propidium iodide flow cytometry), cell line panel; format: cell-based; conditions: 150 nM oligomeric compound, 4.5 μg/ml LIPOFECTIN, after 72 hours, propidium iodide flow cytometry
[10] = Experiment 3, basal (no insulin), HepG2 cells, 48 hours post-transfection
[11] = Experiment 4, insulin-sensitization: HepG2 cells treated with 1 nM insulin for four hours, 48 h post-transfection, mRNA by real-time PCR

Substance	IGFBP-1 (% UTC) [6, 10]	IGFBP-1 (% UTC) [6, 11]	PEPCK-c (% UTC) [7, 10]	PEPCK-c (% UTC) [7, 11]	Follistatin (% UTC) [8, 10]	Follistatin (% UTC) [8, 11]	IGFBP1 mRNA expression [6]	PEPCKc mRNA expression [7]	Follistatin mRNA expression [8]	other results
341801 (antisense CCUAUCUCCCCUCUGGACC; all 2'-MOE, all phosphorothioate, methylation of C and T or U not given here) [compound 341801]										PPAR gamma mRNA [1]: 82 percentage of untreated control (UTC); aP2 mRNA [2]: 90 percentage of untreated control (UTC); TG (triglyceride accumulation) [3]: 65 percentage of untreated control (UTC); GLUT4 mRNA [4]: 77 percentage of untreated control (UTC); HSL mRNA [5]: 89 percentage of untreated control (UTC); IGFBP1 mRNA ([6]; HepG2 cells): 99; PEPCKc mRNA ([7]; HepG2 cells): 73; Follistatin mRNA ([8]; HepG2 cells): 85
341813 (antisense AGACACGTGCACTGTAGA; all 2'-MOE, all phosphorothioate, methylation of C not given here) [compound 341813]	137 % UTC	117 % UTC	121 % UTC	88 % UTC	100 % UTC	102 % UTC				
328773 (antisense eT*eA*e[5mC]*eT*eT*dT*dA*d[5mC]*dT*d[5mC]*d[5mC]*dA*dA*dG*dG*eT*eT*eT*eT*eA) [compound 328773]	148 % UTC	136 % UTC	138 % UTC	93 % UTC	131 % UTC	148 % UTC				G1 (percentage of cells in phase of the cell cycle) [9]: 56.4%; G2/M (percentage of cells in phase of the cell cycle) [9]: 16.7%; S (percentage of cells in phase of the cell cycle) [9]: 26.9%; SubG1 (percentage of cells in phase of the cell cycle) [9]: 2.7%; aneuploid (percentage of cells) [9]: 11.7%
328774 (antisense eG*e[5mC]*eA*e[5mC]*e[5mC]*d[5mC]*dG*d[5mC]*d[5mC]*dT*d[5mC]*dA*d[5mC]*dA*d[5mC]*eA*e[5mC]*eG*eT*eG) [compound 328774]							100	77	68	
328358 (eA*eG*eT*eT*eT*dG*dA*dA*dG*dT*dG*dT*d[5mC]*dA*d[5mC]*eA*eG*e[5mC]*eG*e[5mC]) [compound 328358]							165	93	106	
186515 (antisense eA*eG*eG*eT*eA*dG*d[5mC]*dT*dT*dT*dG*dA*dT*dT*dA*eT*eG*eT*eA*eA) [compound 186515]	193 % UTC	105 % UTC	70 % UTC	40 % UTC	67 % UTC	39 % UTC				
328367 (eA*e[5mC]*eT*eG*eA*dG*dG*dG*d[5mC]*dG*dG*d[5mC]*d[5mC]*d[5mC]*dG*eG*eG*e[5mC]*eA*eG) [compound 328367]							141	85	107	
341808 (antisense GAACUGCCUUUCUCUCCA; all 2'-MOE, all phosphorothioate, methylation of C and T or U not given here) [compound 341808]										IGFBP1 mRNA ([6]; HepG2 cells): 113; PEPCKc mRNA ([7]; HepG2 cells): 64; Follistatin mRNA ([8]; HepG2 cells): 96
